Assay results as given in JP2005314435A, “循環器疾患治療剤および健康食品” (Individual, priority 2000, dated 2002).

Key:
Type in all cases: in vivo
[1] = test system: spontaneously stroke-developing rat [自然発症脳卒中ラット(SHR-SP)]; assay: Example 2: blood pressure lowering, body weight and mortality in stroke-prone rats (1% saline drinking water); details: for blood pressure (systolic) / body weight: 1.8% in feed
[2] = test system: WKY rat (Wistar-Kyoto rat) [WKYラット(Wistar-Kyoto rat)]; assay: Example 1: blood pressure and body weight in normotensive WKY rats (1% saline drinking water)
[3] = test system: SHR-SP rat, neurological symptoms [SHR−SPに対する神経症状]; assay: Example 2: delay of neurological symptom onset and life prolongation in SHR-SP (1% saline drinking water); details: for mean number of days from onset to death / mean number of days to death / mean number of days to onset of neurological symptoms: 1.8% in feed
[4] = test system: spontaneously stroke-developing rat [自然発症脳卒中ラット (SHR−SP)]; assay: Example 3: blood pressure lowering and body weight in SHR-SP given 0.003% L-NAME drinking water
[5] = test system: SHR-SP rat, neurological symptoms [SHR−SPに対する神経症状]; assay: Example 3: delay of neurological symptom onset, life prolongation and brain microvessel protection in SHR-SP given 0.003% L-NAME
[6] = test system: spontaneously hypertensive rat [自然発症高血圧ラット(SHR)]; assay: Example 1: blood pressure lowering and body weight in spontaneously hypertensive rats (1% saline drinking water)
[7] = WKY, FA 2.7% in feed until week 6, then normal feed, week 9
[8] = WKY, FA 2.7% in feed until week 6, then normal feed, week 12
[9] = WKY, FA 2.7% in feed, pre-value (week 0)
[10] = FA 2.7% in feed, pre-value (week 0)
[11] = FA 2.7% in feed, 8-week observation
[12] = FA 2.7% in feed, n = 6, 8-week observation
[13] = FA 1.8% in feed until week 6, then normal feed, week 9
[14] = FA 1.8% in feed until week 6, then normal feed, week 12
[15] = FA 1.8% in feed, pre-value (week 0)
[16] = FA 2.7% in feed until week 6, then normal feed, week 9
[17] = FA 2.7% in feed until week 6, then normal feed, week 12
[18] = n = 7, listed as FA−Arg塩, L−アルギニン塩
[19] = FA-Arg 1.8% in feed, pre-value (week 0)
[20] = FA-Arg 1.8% in feed, 8-week observation
[21] = FA-Arg 1.8% in feed, n = 7, 8-week observation

For `COc1cc(C=CC(=O)O)ccc1O` [FA, フェルラ酸], the “blood pressure (systolic)” value ([1]; pre-value (week 0)) was 124.5 ±5.5 mmHg, the body weight ([1]; pre-value (week 0)) was 94.0 ± 2.3 g and the “blood pressure (systolic)” value ([1]; week 2) was 150.2 ±6.1 mmHg. For the same compound, the body weight ([1]; week 2) was 148.8 ± 3.3 g, the “blood pressure (systolic)” value ([1]; week 4) was 203.4 ±4.6 mmHg and the body weight ([1]; week 4) was 198.2 ± 3.1 g. The body weight ([1]; week 7) was 233.0 ± 3.8 g, the “blood pressure lowering effect (in words)” value ([1]; from week 2 on, versus control without test substance) was “有意な降圧効果が観察された” and the “blood pressure (systolic)” value [2, 7] was 124.0 ±3.7 mmHg. For the same compound, the body weight [2, 7] was 310.1 ± 7.3 g, the “blood pressure (systolic)” value [2, 8] was 135.5 ± 2.8 mmHg and the body weight [2, 8] was 349.2 ± 12.0 g. The “blood pressure (systolic)” value [2, 9] was 99.5 ±3.1 mmHg, the body weight [2, 9] was 122.2 ± 2.8 g and the “blood pressure (systolic)” value ([2]; WKY, FA 2.7% in feed, week 6) was 128.4 ±4.7 mmHg. The body weight ([2]; WKY, FA 2.7% in feed, week 6) was 263.2 ± 4.3 g, the “suppression of body weight (in words)” value ([2]; WKY, FA group) was “体重の有意な抑制がみられた” and the “blood pressure lowering effect (in words)” value ([2]; normotensive WKY rats) was “降圧作用を示さず”. For the same compound, the “mean number of days from onset to death” value ([3]; n = 7) was 10.4 ± 0.6 days, the “mean number of days to death” value ([3]; n = 7) was 70.0 ± 1.8 days and the “mean number of days to onset of neurological symptoms” value ([3]; n = 7) was 59.6 ± 1.4 days. The “delay of neurological symptom onset and life prolongation (in words)” value ([3]; versus control without test substance) was “明らかな神経症状発症遅延効果および延命効果を示している”, the “blood pressure (systolic)” value [4, 10] was 115.0 ±4.7 mmHg and the body weight [4, 10] was 107.7 ± 1.9 g. For the same compound, the “blood pressure (systolic)” value ([4]; FA 2.7% in feed, week 2) was 141.4 ±3.1 mmHg, the body weight ([4]; FA 2.7% in feed, week 2) was 137.6 ± 3.0 g and the “blood pressure (systolic)” value ([4]; FA 2.7% in feed, week 4) was 185.1± 1.9 mmHg. For the same compound, the body weight ([4]; FA 2.7% in feed, week 4) was 175.9 ± 3.2 g, the “blood pressure (systolic)” value ([4]; FA 2.7% in feed, week 6) was 203.1±7.5 mmHg and the body weight ([4]; FA 2.7% in feed, week 6) was 195.1 ± 5.0 g. The “blood pressure (systolic)” value ([4]; FA 2.7% in feed, week 8) was 207.8± 6.0 mmHg, the body weight ([4]; FA 2.7% in feed, week 8) was 213.5 ± 7.4 g and the “preventive effect (in words)” value ([5]; 8-week observation, versus control) was “明らかな予防効果が見られた”. For the same compound, the “animals that died / animals used” value [5, 11] was 0/6, the “animals with onset of neurological symptoms / animals used” value [5, 11] was 0/6 and the “mean number of days to death” value [5, 12] was 56.0 ± 0.0 days. For the same compound, the “mean number of days to onset of neurological symptoms” value [5, 12] was 56.0 ± 0.0 days, the “mean number of days to onset of neurological symptoms or death (in words)” value ([5]; from start of administration, versus control) was “有意に延長していた” and the “protection of brain microvessels (in words)” value ([5]; order FA group, FA-Arg salt group) was “FA投与群、FA−Arg塩投与群の順で脳内微細血管が保護されたことが示唆された”. For the same compound, the deaths ([6]; FA 1.8% group, at week 9-10 (after change to normal feed at week 6)) was 1 cases, the “blood pressure (systolic)” value [6, 13] was 225.6 ±6.1 mmHg and the body weight [6, 13] was 293.8 ± 5.0 g. The “blood pressure (systolic)” value [6, 14] was 233.6 ± 6.0 mmHg, the body weight [6, 14] was 307.0 ± 6.7 g and the “blood pressure (systolic)” value [6, 15] was 128.5 ±2.2 mmHg. The body weight [6, 15] was 135.5 ± 1.8 g, the “blood pressure (systolic)” value ([6]; FA 1.8% in feed, week 6) was 201.1 ±6.2 mmHg and the body weight ([6]; FA 1.8% in feed, week 6) was 264.8 ± 4.1 g. The “blood pressure (systolic)” value [6, 16] was 211.8 ±3.1 mmHg, the body weight [6, 16] was 292.1 ± 3.0 g and the “blood pressure (systolic)” value [6, 17] was 217.7 ± 4.7 mmHg. The body weight [6, 17] was 309.4 ± 3.1 g, the “blood pressure (systolic)” value [6, 10] was 135.4 ±2.7 mmHg and the body weight [6, 10] was 136.8 ± 1.5 g. For the same compound, the “blood pressure (systolic)” value ([6]; FA 2.7% in feed, week 6) was 192.0 ±2.5 mmHg, the body weight ([6]; FA 2.7% in feed, week 6) was 239.5 ± 3.4 g and the “suppression of body weight (in words)” value ([6]; FA groups) was “体重の有意な抑制がみられた”. For the same compound, the “blood pressure lowering effect (in words)” value ([6]; during 6 weeks of administration) was “用量依存的に有意な降圧作用を示した”.
With `COc1cc(C=CC(=O)O)ccc1O` [FA−Arg, フェルラ酸−L−アルギニン塩] the “blood pressure (systolic)” value ([1]; pre-value (week 0), L−アルギニン塩) was 122.8 ±4.6 mmHg, the body weight ([1]; pre-value (week 0), L−アルギニン塩) was 103.2 ± 3.2 g and the “blood pressure (systolic)” value ([1]; week 2, L−アルギニン塩) was 155.2 ±4.6 mmHg. For the same compound, the body weight ([1]; week 2, L−アルギニン塩) was 156.7 ± 3.8 g, the “blood pressure (systolic)” value ([1]; week 4, L−アルギニン塩) was 196.1 ± 5.8 mmHg and the body weight ([1]; week 4, L−アルギニン塩) was 204.4 ± 4.5 g. For the same compound, the body weight ([1]; week 7, L−アルギニン塩) was 226.4 ± 10.9 g, the “mean number of days from onset to death” value [3, 18] was 8.2 ± 2.2 days and the “mean number of days to death” value [3, 18] was 73.9 ± 4.7 days. The “mean number of days to onset of neurological symptoms” value [3, 18] was 65.4 ± 4.8 days, the deaths ([4]; FA-Arg 1.8% in feed, at week 7) was 1 cases and the deaths ([4]; FA-Arg 1.8% in feed, at week 8) was 1 cases. The “blood pressure (systolic)” value [4, 19] was 116.0 ±4.3 mmHg, the body weight [4, 19] was 102.7 ± 2.9 g and the “blood pressure (systolic)” value ([4]; FA-Arg 1.8% in feed, week 2) was 146.4 ±5.0 mmHg. For the same compound, the body weight ([4]; FA-Arg 1.8% in feed, week 2) was 179.9 ± 4.0 g, the “blood pressure (systolic)” value ([4]; FA-Arg 1.8% in feed, week 4) was 183.6± 5.7 mmHg and the body weight ([4]; FA-Arg 1.8% in feed, week 4) was 225.7 ± 3.0 g. For the same compound, the “blood pressure (systolic)” value ([4]; FA-Arg 1.8% in feed, week 6) was 205.7±7.7 mmHg, the body weight ([4]; FA-Arg 1.8% in feed, week 6) was 244.3 ± 4.2 g and the “blood pressure (systolic)” value ([4]; FA-Arg 1.8% in feed, week 8) was 221.8± 7.1 mmHg. For the same compound, the body weight ([4]; FA-Arg 1.8% in feed, week 8) was 263.6 ± 6.9 g, the “animals that died / animals used” value [5, 20] was 2/7 and the “animals with onset of neurological symptoms / animals used” value [5, 20] was 2/7. The “mean number of days to death” value [5, 21] was 55.0 ± 1.0 days and the “mean number of days to onset of neurological symptoms” value [5, 21] was 54.9 ± 1.1 days.
